From paper PMC8623418, “Novel Multitarget Hydroxamic Acids with a Natural Origin CAP Group against Alzheimer’s Disease: Synthesis, Docking and Biological Evaluation” (Pharmaceutics, 2021)

Columns and labels:
[1] = Stability in rat blood plasma, LC–MS/MS; format: in vitro ADME; conditions: 1000 ng/mL spike
Experimental: EDTA-stabilized rat blood plasma was used in the study. The spikes were prepared by adding 100 µL of the solution of a compound to 900 µL of plasma, followed by continuous shaking. A 100 µL aliquot of a sample was taken and mixed with 900 µL of MeOH, shaken for 15 min, and centrifuged. Then, 100 µLc of the supernatant was transferred to a vial insert and analyzed.
HPLC–MS/MS analyses were performed using a Shimadzu LC-20AD Prominence chromatograph equipped with a SIL-20AC cooled autosampler and a gradient pump. A column filled with a reversed-phase ProntoSil 120-AQ C18 sorbent (Econova, Novosibirsk) was used. Water with the addition of 0.1% HCOOH was used as mobile phase A, and methanol containing 0.1% HCOOH was used as mobile phase B. The gradient was as follows: 0 min—5% B; 1 min—5% B; 2 min—95% B; 5 min—100% B; the flow rate was 300 μL/min; the injection volume was 10 μL. The column was then equilibrated for the following analysis. […]
To study the stability of the compounds, their solutions (spikes) in rat blood plasma were prepared with a concentration of 1000 ng/mL. […] Aliquots of the spike with a volume of 100 μL were taken after 5, 15, 30, 60, 120, 180, and 270 min, after which the sample was mixed with MeOH, shaken for 10 min, then centrifuged and analyzed with LC–MS/MS.

5xFAD transgenic mice [2] = assay: Ex vivo electron transport chain activity of brain mitochondria (Seahorse OCR); format: in vivo; conditions: brain mitochondrial p2 fraction of treated 5xFAD mice
Experimental: (§1) At the end of the in vivo series of experiments, the animals’ brains were sampled for further measurement of the lipid peroxidation level, as well as glutathione content in mouse brain homogenates. A synaptosomal p2 fraction containing mitochondria was also isolated to investigate the bioenergetic characteristics of organelles.
The study on the effect of the electron transport chain complexes was carried out on a preparation of the mitochondrial p2 fraction of the brain (10 µg/well) using the Agilent Seahorse XF96e Analyzer (Seahorse Bioscience, Santa Clara, CA, USA) to measure the rate of oxygen uptake under the action of modulators. For this purpose, the activators of the electron transport chain complex I-glutamate/malate, the inhibitor of complex I, rotenone (2 µM), the substrate of complex II, potassium succinate ([…]), the inhibitor of complex III, antimycin A, and the substrates of complex IV, ascorbate, were used/TMPD (0.5 µM).
To evaluate mitochondrial functioning, we determined the functioning of the respiratory chain complexes using Seahorse Bioanalyzer. […] However, the oxygen consumption rate (OCR) was increased in transgenic animals treated with the test compounds.

5xFAD transgenic mice [3] = assay: Ex vivo total glutathione in mouse brain homogenate; conditions: post-mortem, versus 5xFAD mice
Experimental: as §1
The performance of the glutathione system of the cell’s own antioxidant defense was evaluated using a commercially available kit (Glutathione Assay Kit, Sigma Aldrich, Saint Louis, MO, USA) in accordance with the protocol provided by the manufacturer. The total glutathione level was determined by spectrophotometric measurement at a wavelength of 412 nm by the amount of 2-nitro-5-thiobenzoic acid, a product formed during the reduction of GSH 5,5′-dithiobis-(2-nitrobenzoic acid).
The glutathione content was estimated using the method based on measurement of the absorption of a colored compound formed during the colorimetric reaction of DTNB with SH groups of glutathione. […] Therefore, the level of lipid peroxidation of mouse brain homogenates was also measured by its final product, malondialdehyde. […]

SMILES | Time stable in rat blood plasma [1] | Oxygen consumption rate (OCR) after injection of succinate (5xFAD transgenic mice [2]; complex II) | Oxygen consumption rate (OCR) after injection of ascorbate (5xFAD transgenic mice [2]; complex IV) | half-life at 1000 ng/mL ([1]; rat, EDTA-stabilized rat blood plasma, estimated from the graph) | melting point | Total glutathione content in brain (5xFAD transgenic mice [3])
O=C(/C=C/c1ccc(C(=O)NO)cc1)NC1C2CC3CC(C2)CC1C3 (stereo not drawn) [compound 25, 4-((E)-3-((-Adamantan-2-yl)amino)-3-Oxoprop-1-en-1-yl)-N-Hydroxybenzamide] | ≥ 4.5 h |  |  |  |  | 
O=C(CCCCCCC(=O)NC1C2CC3CC(C2)CC1C3)NO (stereo not drawn) [compound 15, N^1-(Adamant-2-yl)-N^8-Hydroxyoctanediamide] |  | 251.00 ± 10.45 pmol/min | 422.67 ± 14.61 pmol/min | 1 to 1.17 h | 133.6 °C | tended to recover this parameter
